# According to US8268278B2, “Phosphorus-calcium-strontium compound and uses thereof in endodontic cements” (Centre National de la Recherche Scientifique, priority 2006, dated 2012):
# System: polymicrobial inoculum taken from dental plaque
# Assay: Inhibition of growth of a polymicrobial inoculum, diffusion in solid agar medium
# Type: cell-based
# Conditions: freshly prepared samples
# Excerpt: The activity of these two cements was verified on freshly prepared samples of cement and samples prepared 13 days previously.
structure (smiles),measurement,value
"[Ca+2].[OH-].[OH-] [Ca(OH)2, calcium hydroxide]","RIZ (relative inhibition zone, compared with freshly prepared pure calcium hydroxide)",1
